Where two headings read alike, the source gives them in different places.
Molecular target: T1, Autotaxin (Homo sapiens, UniProt Q13822)
T1 construct: from tissue; host or cells: pooled human plasma
Assay: LPA formation in pooled human plasma (ex vivo autotaxin inhibition)
Format: biochemical
Settings: 2 hours incubation
In short: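 Pooled human plasma incubated 2 h with various compound concentrations; LPA 18:2 and 20:4 quantified by LC/MS/MS (negative-ion MRM, LPA17:0 internal standard) after butanol extraction. Inhibition of LPA formation relative to untreated plasma; IC50 by non-linear regression.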

[1] = LPA 18:2 by LC/MS/MS, read-out: LPA formation (18:2) (IC50)
[2] = LPA 20:4 by LC/MS/MS, read-out: LPA formation (20:4) (IC50)

| Compound | IC50 [1] [nM] | IC50 [2] [nM] |
| --- | --- | --- |
| CCc1nn2c(C)cc(N3CC4(CCN(C(=O)[C@H]5CCCO5)C4)C3)cc2c1N(C)c1nc(-c2ccc(F)cc2)c(C#N)s1 [Example 46, (R)-2-((2-ethyl-7-methyl-5-(6-(tetrahydrofuran-2-carbonyl)-2,6-diazaspiro[3.4]octan-2-yl)pyrazolo[1,5-a]pyridin-3-yl)(methyl)amino)-4-(4-fluorophenyl)thiazole-5-carbonitrile] | 100 to 500 | 100 to 500 |
| CCc1nn2c(C)cc(N3CCC4(CN(C(=O)[C@H]5CCOC5)C4)C3)cc2c1N(C)c1nc(-c2ccc(F)cc2)c(C#N)s1 [Example 51, (S)-2-((2-ethyl-7-methyl-5-(2-(tetrahydrofuran-3-carbonyl)-2,6-diazaspiro[3.4]octan-6-yl)pyrazolo[1,5-a]pyridin-3-yl)(methyl)amino)-4-(4-fluorophenyl)thiazole-5-carbonitrile] | ≤ 100 | ≤ 100 |
| CCc1nn2c(C)cc(N3CC4(CN(C(=O)c5cnco5)C4)C3)cc2c1N(C)c1nc(-c2ccc(F)cc2)c(C#N)s1 [Example 57, 2-((2-ethyl-7-methyl-5-(6-(oxazole-5-carbonyl)-2,6-diazaspiro[3.3]heptan-2-yl)pyrazolo[1,5-a]pyridin-3-yl)(methyl)amino)-4-(4-fluorophenyl)thiazole-5-carbonitrile] | ≤ 100 | ≤ 100 |
| CCc1nn2c(C)cc(N3CC4(CN(C(=O)C5(O)CC5)C4)C3)cc2c1N(C)c1nc(-c2ccc(F)cc2)c(C#N)s1 [Example 61, 2-((2-ethyl-5-(6-(1-hydroxycyclopropane-1-carbonyl)-2,6-diazaspiro[3.3]heptan-2-yl)-7-methylpyrazolo[1,5-a]pyridin-3-yl)(methyl)amino)-4-(4-fluorophenyl)thiazole-5-carbonitrile] | 100 to 500 | 100 to 500 |
| CCc1nn2c(C)cc(N3CC4(CN(C(=O)[C@@H](C)O)C4)C3)cc2c1N(C)c1nc(-c2ccc(F)cc2)c(C#N)s1 [Example 63, (R)-2-((2-ethyl-5-(6-(2-hydroxypropanoyl)-2,6-diazaspiro[3.3]heptan-2-yl)-7-methylpyrazolo[1,5-a]pyridin-3-yl)(methyl)amino)-4-(4-fluorophenyl)thiazole-5-carbonitrile] | 100 to 500 | 100 to 500 |
| CCc1nn2c(C)cc(N3CC4C(C3)C4NC(=O)[C@H]3CCOC3)cc2c1N(C)c1nc(-c2ccc(F)cc2)c(C#N)s1 (stereo partly drawn) [Example 64, (3S)—N-(3-(3-((5-cyano-4-(4-fluorophenyl)thiazol-2-yl)(methyl)amino)-2-ethyl-7-methylpyrazolo[1,5-a]pyridin-5-yl)-3-azabicyclo[3.1.0]hexan-6-yl)tetrahydrofuran-3-carboxamide] | 100 to 500 | 100 to 500 |
| CCc1nn2c(C)cc(N3CCC4(CN(C[C@@H](O)CO)C4)C3)cc2c1N(C)c1nc(-c2ccc(F)cc2)c(C#N)s1 [Example 69, (R)-2-((5-(2-(2,3-dihydroxypropyl)-2,6-diazaspiro[3.4]octan-6-yl)-2-ethyl-7-methylpyrazolo[1,5-a]pyridin-3-yl)(methyl)amino)-4-(4-fluorophenyl)thiazole-5-carbonitrile] | 100 to 500 | 100 to 500 |
| CCc1nn2c(C)cc(N3CC4(C3)CN(S(C)(=O)=O)C4)cc2c1N(C)c1nc(-c2ccc(F)cc2)c(C#N)s1 [Example 71] | 100 to 500 | 100 to 500 |
| CCc1nn2c(C)cc(-c3cnn(C[C@@H](O)CO)c3)cc2c1N(C)c1nc(-c2ccc(F)cc2)c(C#N)s1 [Example 72, (R)-2-((5-(1-(2,3-dihydroxypropyl)-1H-pyrazol-4-yl)-2-ethyl-7-methylpyrazolo[1,5-a]pyridin-3-yl)(methyl)amino)-4-(4-fluorophenyl)thiazole-5-carbonitrile] | > 1000 | > 1000 |
| Cc1cc(N2CC3(CN(C(=O)C(C)(C)O)C3)C2)cc2c(N(C)c3nc(-c4ccc(F)cc4)c(C#N)s3)c(C3CC3)nn12 [Example 77, 2-((2-cyclopropyl-5-(6-(2-hydroxy-2-methylpropanoyl)-2,6-diazaspiro[3.3]heptan-2-yl)-7-methylpyrazolo[1,5-a]pyridin-3-yl)(methyl)amino)-4-(4-fluorophenyl)thiazole-5-carbonitrile] | ≤ 100 | ≤ 100 |

Second part, the compound after the results:

| IC50 [1] [nM] | IC50 [2] [nM] | Compound |
| --- | --- | --- |
| ≤ 100 | 100 to 500 | CCc1nn2c(C)cc(N3CC4(CCN(C(=O)C5CN(C)C5)C4)C3)cc2c1N(C)c1nc(-c2ccc(F)cc2)c(C#N)s1 [Example 47, 2-((2-ethyl-7-methyl-5-(6-(1-methylazetidine-3-carbonyl)-2,6-diazaspiro[3.4]octan-2-yl)pyrazolo[1,5-a]pyridin-3-yl)(methyl)amino)-4-(4-fluorophenyl)thiazole-5-carbonitrile] |
| ≤ 100 | ≤ 100 | CCc1nn2c(C)cc(N3CCC4(CN(C(=O)[C@H]5CCCO5)C4)C3)cc2c1N(C)c1nc(-c2ccc(F)cc2)c(C#N)s1 [Example 49, (R)-2-((2-ethyl-7-methyl-5-(2-(tetrahydrofuran-2-carbonyl)-2,6-diazaspiro[3.4]octan-6-yl)pyrazolo[1,5-a]pyridin-3-yl)(methyl)amino)-4-(4-fluorophenyl)thiazole-5-carbonitrile] |
| > 1000 | > 1000 | CCc1nn2c(C)cc(N3CCC4(CCN(C)C4=O)CC3)cc2c1N(C)c1nc(-c2ccc(F)cc2)c(C#N)s1 [Example 50, 2-((2-ethyl-7-methyl-5-(2-methyl-1-oxo-2,8-diazaspiro[4.5]decan-8-yl)pyrazolo[1,5-a]pyridin-3-yl)(methyl)amino)-4-(4-fluorophenyl)thiazole-5-carbonitrile] |
| 100 to 500 | 100 to 500 | CCc1nn2c(C)cc(N3CCC4(CN(C(=O)CO)C4)C3)cc2c1N(C)c1nc(-c2ccc(F)cc2)c(C#N)s1 [Example 52, 2-((2-ethyl-5-(2-(2-hydroxyacetyl)-2,6-diazaspiro[3.4]octan-6-yl)-7-methylpyrazolo[1,5-a]pyridin-3-yl)(methyl)amino)-4-(4-fluorophenyl)thiazole-5-carbonitrile] |
| ≤ 100 | ≤ 100 | CCc1nn2c(C)cc(N3CC4(CCN(C(=O)C(C)(C)O)C4)C3)cc2c1N(C)c1nc(-c2ccc(F)cc2)c(C#N)s1 [Example 53, 2-((2-ethyl-5-(6-(2-hydroxy-2-methylpropanoyl)-2,6-diazaspiro[3.4]octan-2-yl)-7-methylpyrazolo[1,5-a]pyridin-3-yl)(methyl)amino)-4-(4-fluorophenyl)thiazole-5-carbonitril] |
| 500 to 1000 | 500 to 1000 | CCc1nn2c(C)cc(N3CCC4(CN(C(=O)C5(O)CC5)C4)C3)cc2c1N(C)c1nc(-c2ccc(F)cc2)c(C#N)s1 [Example 54, 2-((2-ethyl-5-(2-(1-hydroxycyclopropane-1-carbonyl)-2,6-diazaspiro[3.4]octan-6-yl)-7-methylpyrazolo[1,5-a]pyridin-3-yl)(methyl)amino)-4-(4-fluorophenyl)thiazole-5-carbonitrile] |
| 100 to 500 | 100 to 500 | CCc1nn2c(C)cc(N3CCC4(CN(CC(O)CO)C4)C3)cc2c1N(C)c1nc(-c2ccc(F)cc2)c(C#N)s1 (stereo not shown) [Example 55, 2-((5-(2-(2,3-dihydroxypropyl)-2,6-diazaspiro[3.4]octan-6-yl)-2-ethyl-7-methylpyrazolo[1,5-a]pyridin-3-yl)(methyl)amino)-4-(4-fluorophenyl)thiazole-5-carbonitrile] |
| ≤ 100 | ≤ 100 | CCc1nn2c(C)cc(N3CC4(CN(C(=O)C5(O)CCOCC5)C4)C3)cc2c1N(C)c1nc(-c2ccc(F)cc2)c(C#N)s1 [Example 56] |
| ≤ 100 | 100 to 500 | CCc1nn2c(C)cc(N3CC4(CN(C(=O)C(O)CO)C4)C3)cc2c1N(C)c1nc(-c2ccc(F)cc2)c(C#N)s1 (stereo not shown) [Example 60, 2-((5-(6-(2,3-dihydroxypropanoyl)-2,6-diazaspiro[3.3]heptan-2-yl)-2-ethyl-7-methylpyrazolo[1,5-a]pyridin-3-yl)(methyl)amino)-4-(4-fluorophenyl)thiazole-5-carbonitrile] |
| 100 to 500 | 100 to 500 | CCc1nn2c(C)cc(N3CC4(CN(C(=O)[C@H](C)O)C4)C3)cc2c1N(C)c1nc(-c2ccc(F)cc2)c(C#N)s1 [Example 62, (S)-2-((2-ethyl-5-(6-(2-hydroxypropanoyl)-2,6-diazaspiro[3.3]heptan-2-yl)-7-methylpyrazolo[1,5-a]pyridin-3-yl)(methyl)amino)-4-(4-fluorophenyl)thiazole-5-carbonitrile] |
| ≤ 100 | ≤ 100 | CCc1nn2c(C)cc(N3CC4(CN(C(=O)c5ccco5)C4)C3)cc2c1N(C)c1nc(-c2ccc(F)cc2)c(C#N)s1 [Example 66, 2-((2-ethyl-5-(6-(furan-2-carbonyl)-2,6-diazaspiro[3.3]heptan-2-yl)-7-methylpyrazolo[1,5-a]pyridin-3-yl)(methyl)amino)-4-(4-fluorophenyl)thiazole-5-carbonitrile] |
| 100 to 500 | 100 to 500 | CCc1nn2c(C)cc(N3CCC4(CN(C[C@H](O)CO)C4)C3)cc2c1N(C)c1nc(-c2ccc(F)cc2)c(C#N)s1 [Example 68, (S)-2-((5-(2-(2,3-dihydroxypropyl)-2,6-diazaspiro[3.4]octan-6-yl)-2-ethyl-7-methylpyrazolo[1,5-a]pyridin-3-yl)(methyl)amino)-4-(4-fluorophenyl)thiazole-5-carbonitrile] |
| 100 to 500 | 100 to 500 | CCc1nn2c(C)cc(N3CC4(CN(C(=O)c5ccon5)C4)C3)cc2c1N(C)c1nc(-c2ccc(F)cc2)c(C#N)s1 [Example 70, 2-((2-ethyl-5-(6-(isoxazole-3-carbonyl)-2,6-diazaspiro[3.3]heptan-2-yl)-7-methylpyrazolo[1,5-a]pyridin-3-yl)(methyl)amino)-4-(4-fluorophenyl)thiazole-5-carbonitrile] |
